Laboratory results reported in ChEMBL document CHEMBL1127526, “A comparison of the cytotoxic and physical properties of aziridinyl quinone derivatives based on the pyrrolo[1,2-a]benzimidazole and pyrrolo[1,2-a]indole ring systems” (J Med Chem, 1994).

Test: The highest concentration employed in the cytotoxicity assay was reported
Assay type: functional

Compound `CC(=O)OC1CCn2c1nc1c2C(=O)C(C)=C(N2CC2)C1=O` (stereo unspecified) has a Concentration of 1 M.
